# Assay results as given in US11491132B2, “Methods for treating thrombocytopenia” (Enzychem Lifesciences Corporation, priority 2014, dated 2022).
# Assays:
# [1] = tested on: neutrophils, platelets, Complement 3; test: Chemotherapy-induced neutropenia and thrombocytopenia (CIN) animal model; type: in vivo, mice
# Protocol: The effect of PLAG for treatment of neutropenia and thrombocytopenia induced by chemotherapy (CIN) is evaluated in an animal model. Anti-cancer agents (Gemcitabine 50 mg/kg, Cyclosphosphamide […], or Tamoxifen 50 mg/kg) are dosed daily for 3 weeks; PLAG is also administered 50 mg/kg daily for 3 weeks. After three weeks, neutrophils are harvested and counted with Auto Hematology Analyzer BC-5300.
# It is believed that the neutropenia and thrombocytopenia of these agents and other chemotherapeutic agents may be due at least in part to a specific complement-mediated toxicity. This is seen in FIG. 6.
# [2] = tested on: hematopoietic stem cells and megakaryocytes; conditions: reported in WO 99/26640; cited from earlier work
# platelets = test: Lipopolysaccharide-induced platelet reduction in mice; type: in vivo; conditions: LPS 1 mg/kg, PLAG 1 mg/kg, 15 hours after PLAG treatment
# Protocol: Mice are injected with 100 mg/kg phenylhydrazine (PHZ), i.p., to induce anemia and reduction of platelets. 5 mg/kg PLAG is administered to the mice orally and blood samples are taken at 3 and 13 days after. In addition, for comparison, normal mice which are not treated with phenylhydrazine are prepared as a normal group, and mice treated with PHZ and olive oil instead of PLAG are prepared as a control group. The blood samples taken from the mice are treated with 0.5 ml EDTA (Minicollect tube, Greiner bio-one, Austria) and concentration of platelet is measured using automated blood sample analyzer BC-6800 (Mindray, Shenzhen, China) by number of platelet per […] (k: 1,000).
# The experiment is repeated using Tamoxifen (Tam), an anticancer agent, injected at the amount of 100 mg/kg, or lipopolysaccharide (LPS), an inflammation inducer, at the amount of 1 mg/kg to induce platelet reduction. Platelet concentration is measured 15 hours after PLAG treatment. For comparison, olive oil and PBS are used instead of PLAG as controls, respectively for the Tamoxifen and lipopolysaccharide experiment.
smiles,measurement,setting,value
"CCCCC/C=C\C/C=C\CCCCCCCC(=O)OC(COC(C)=O)COC(=O)CCCCCCCCCCCCCCC (racemic) [PLAG, 1-palmitoyl-2-linoleoyl-3-acetylglycerol]",neutrophil score,[1]; Gemcitabine 50 mg/kg with PLAG 50 mg/kg,improved significantly
same,survival rate,[1]; Gemcitabine with continued PLAG vs Gemcitabine alone,improved survival rate
same,reduced neutrophil count following chemotherapy,"[1]; Gemcitabine, Cyclophosphamide or Tamoxifen daily 3 weeks, PLAG 50 mg/kg daily 3 weeks",prevented
same,"Complement 3 activation by chemotherapeutic agents, blockage","[1]; Gemcitabine, Cyclophosphamide or Tamoxifen with PLAG",largely blocked
same,activities and survival rate,[1]; Tamoxifen 50 mg/kg co-treated with PLAG 50 mg/kg vs Tamoxifen only,faster improvement of activities and survival rate
same,neutrophil count,[1]; cyclophosphamide with PLAG 50 mg/kg vs control group,improved significantly
same,growth-stimulating activities of hematopoietic stem cells and megakaryocytes,[2],growth-stimulating activities
same,Platelet Conc.,platelets,450.00 k/ul
